Results from PMC8210147, “Characterization of the MurT/GatD complex in Mycobacterium tuberculosis towards validating a novel anti-tubercular drug target” (JAC-Antimicrobial Resistance, 2021).

Biological target: Rv3712 (mycobacterial MurT) (Mycobacterium tuberculosis, UniProt I6Y4C7)
Sequence (I6Y4C7 entry or part of it): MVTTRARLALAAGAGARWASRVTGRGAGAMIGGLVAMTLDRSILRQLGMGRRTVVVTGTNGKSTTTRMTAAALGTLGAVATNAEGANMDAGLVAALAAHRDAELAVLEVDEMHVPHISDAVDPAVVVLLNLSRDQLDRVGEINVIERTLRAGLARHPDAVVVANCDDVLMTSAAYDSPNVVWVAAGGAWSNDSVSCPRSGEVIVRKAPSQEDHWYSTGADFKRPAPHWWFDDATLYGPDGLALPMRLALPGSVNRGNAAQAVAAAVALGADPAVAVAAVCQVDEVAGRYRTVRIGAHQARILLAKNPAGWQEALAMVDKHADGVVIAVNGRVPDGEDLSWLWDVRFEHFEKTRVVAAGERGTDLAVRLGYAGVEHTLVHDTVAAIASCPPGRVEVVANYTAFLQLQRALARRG

## Nc1ncnc2c1ncn2[C@@H]1O[C@H](COP(=O)(O)OP(=O)(O)OP(=O)(O)O)[C@@H](O)[C@H]1O [ATP]
  inorganic phosphate release (PiColorLock Gold), 30 min: Rv3712 was found to be an ATPase
